A short description of the series: UV-Vis absorption and fluorescence spectroscopy of the Oxazine library. The series is classed as physicochemical. Conditions: for Extinction coefficient: Beer's Law plots; for Quantum yield: relative, references Oxazine 1, Oxazine 170, Rhodamine 101. As for the experimental part: All reagents were purchased from Sigma Aldrich, Fisher Scientific, TCI, or Ark Pharm. Unless otherwise indicated, all commercially available starting materials were used directly without further purification. Analytical thin layer chromatography (TLC) was performed on Millipore ready-to-use plates with silica gel 60 (F254, 32-63 μm). Flash chromatography was performed on Sorbent Technologies silica gel for column chromatography or on a Biotage Isolera Flash System using SNAP Ultra cartridges. High-resolution mass spectra (HRMS) were measured on a ThermoElectron LTQ-Orbitrap high resolution mass spectrometer with a dedicated Accela HPLC system, or an Agilent 6244 time-of-flight LCMS with diode array detector VL+. LCMS and Purity Characterization Mass-to-charge ratio and purity of the Oxazine compounds were characterized on an Agilent 6244 time-of-flight tandem liquid chromatography mass spectroscopy (LCMS) with diode array detector VL+. Sample (10 μL) was injected into a C18 column (Poroshell 120, 4.6×50 mm, 2.7 micron), and eluted with a solvent system of A (H2O, 0.1% FA) and B (MeCN, 01.% FA) at 0.4 mL/min, from A/B=90/10 to 5/95 over 10 min, maintained at A/B=5/95 for additional 5 min. Ions were detected in positive ion mode by setting the capillary voltage at 4 kV and gas temperature at 350° C. Purity was calculated through area under the curve analysis of the absorbance at 254 nm. UV-Vis Absorption and Fluorescence Spectroscopy. UV-Vis spectra were collected with a Cary 50 UV-Vis spectrophotometer at room temperature, using a 1-cm quartz cuvette. Fluorescence spectra were collected on a Cary Eclipse fluorescence spectrophotometer (Agilent Technologies). All absorbance spectra were reference corrected. Extinction coefficient was calculated from Beer's Law plots of absorbance versus concentration. Fluorescence spectra were corrected for the wavelength dependent response of the R928 photomultiplier tube using a manufacturer generated correction file. Relative quantum yields are reported as the average of multiple measurements using multiple references, including Oxazine 1, Oxazine 170, and Rhodamine 101. Physicochemical Property Calculation. Physicochemical partition coefficients (Log D) values at pH 7.4, number of hydrogen bond donors and acceptors, polar surface area, and the number of rotatable bonds were calculated using Marvin and JChem calculator plugins (ChemAxon, Budapest, Hungary). Nerve-Specificity Screening using Direct/Topical Administration Each compound was screened for its tissue-specificity using a previously published direct/topical administration strategy in murine brachial plexus and sciatic nerves.^1 Each compound from the Oxazine library was formulated in the previously utilized co-solvent formulation (10% DMSO, 5% Kolliphor, 65% serum and 20% phosphate buffered saline) at 125 μM. 100 μL of the formulated Oxazine were incubated on the exposed brachial plexus or sciatic nerve for 5 minutes. The fluorophore containing solution was removed and the area was irrigated with saline 18 times to remove any unbound fluorophore. Co-registered fluorescence and color images were collected of each stained area 30 minutes after Oxazine direct/topical administration using a custom built macroscopic imaging system with 620/60 nm excitation and 700/75 nm bandpass emission filters. Custom written MatLab code was used to analyze the tissue specific fluorescence where regions of interest were selected on the nerve, muscle and adipose tissue using the white light images. These regions of interest were then analyzed on the co-registered matched fluorescence images permitting assessment of the nerve to muscle and nerve to adipose ratios in blinded manner. […]

For `CCN1CCCc2cc3c(cc21)Oc1cc2c(cc1=N3)CCC[N+]=2CC` [LGW02-99, 1,11-diethyl-3,4,8,9,10,11-hexahydro-2H-dipyrido[3,2-b:2′,3′-i]phenoxazin-1-ium], the “Max Abs” value was found to be 640 nm, the “Max Em” value is 675 nm, the “Max Ex” value was 665 nm and the Extinction coefficient came out at 59971 M⁻¹ cm⁻¹. The compound further displayed a Quantum yield of 24.67%.

Take `CCN1CCOc2cc3nc4ccc(=[N+](CC)CC)cc-4oc3cc21` [LGW05-65, N-ethyl-N-(4-ethyl-3,4-dihydro-[1,4]oxazino[2,3-b]phenoxazin-8(2H)-ylidene)ethanaminium]: the “Max Abs” value was 661 nm, the “Max Em” value is 684 nm, the “Max Ex” value was found to be 665 nm and the Extinction coefficient amounted to 61535 M⁻¹ cm⁻¹. This compound also displayed a Quantum yield of 7.85%.

Regarding `CC/N=c1/cc2oc3cc(NCC)c(Cl)cc3nc-2cc1Cl` [LGW05-39, (Z)—N-(2,8-dichloro-7-(ethylamino)-3H-phenoxazin-3-ylidene)ethanaminium], the “Max Abs” value is 620 nm, the “Max Em” value was 638 nm, the “Max Ex” value came to 620 nm and the Extinction coefficient was found to be 18223 M⁻¹ cm⁻¹. Also, the Quantum yield amounted to 34.29%.

Take `CCN1c2cc3c(cc2C(C)=CC1(C)C)N=c1cc2c(cc1O3)=[N+](CC)C(C)(C)C=C2C` [LGW05-66, 1,11-diethyl-2,2,4,8,10,10-hexamethyl-10,11-dihydro-2H-dipyrido[3,2-b:2′,3′-i]phenoxazin-1-ium]: the “Max Abs” value was 701 nm, the “Max Em” value was 718 nm, the “Max Ex” value came out at 710 nm and the Extinction coefficient is 34002 M⁻¹ cm⁻¹. The compound also yielded a Quantum yield of 36.68%.

Regarding `c1cc2nc3ccc(=[N+]4CCCCC4)cc-3oc2cc1N1CCCCC1` [LGW04-91, 1-(7-(piperidin-1-yl)-3H-phenoxazin-3-ylidene)piperidin-1-ium], the “Max Abs” value is 663 nm, the “Max Em” value is 689 nm, the “Max Ex” value was 665 nm and the Extinction coefficient is 85597 M⁻¹ cm⁻¹. For the same compound, the Quantum yield was 2.77%.

In the case of `CCNc1ccc2nc3ccc(=[N+](CC)CC)cc-3oc2c1C` [LGW02-60, N-ethyl-N-(7-(ethylamino)-6-methyl-3H-phenoxazin-3-ylidene)ethanaminium], the “Max Abs” value stood at 645 nm, the “Max Em” value was found to be 661 nm, the “Max Ex” value is 650 nm and the Extinction coefficient was found to be 65369 M⁻¹ cm⁻¹. The compound further gave a Quantum yield of 8.98%.

Turning to `CCNc1cc2oc3cc(=[N+](CC)CC)ccc-3nc2cc1F` [LGW05-82, N-ethyl-N-(7-(ethylamino)-8-fluoro-3H-phenoxazin-3-ylidene)ethanaminium], the “Max Abs” value was determined as 636 nm, the “Max Em” value is 661 nm, the “Max Ex” value is recorded as 640 nm and the Extinction coefficient amounted to 36833 M⁻¹ cm⁻¹. In addition, the Quantum yield is 2.70%.

In the case of `CC/N=c1\ccc2nc3ccc(NCC)c(C)c3oc-2c1C` [LGW02-57, (E)-N-(7-(ethylamino)-4,6-dimethyl-3H-phenoxazin-3-ylidene)ethanaminium], the “Max Abs” value worked out at 635 nm, the “Max Em” value came to 653 nm, the “Max Ex” value worked out at 635 nm and the Extinction coefficient worked out at 56713 M⁻¹ cm⁻¹. Also, the Quantum yield came out at 11.15%.

As for `CC/N=c1/cc2oc3cc(N4CCCCC4)ccc3nc-2cc1C` [LGW03-21, (Z)—N-(2-methyl-7-(piperidin-1-yl)-3H-phenoxazin-3-ylidene)ethanaminium], the “Max Abs” value is reported as 642 nm, the “Max Em” value is given as 661 nm, the “Max Ex” value worked out at 640 nm and the Extinction coefficient was 36049 M⁻¹ cm⁻¹. Moreover, the Quantum yield was determined as 2.25%.

As to `CC/N=c1/cc2oc3c(C)c(NCC)ccc3nc-2cc1C` [LGW02-58, (Z)—N-(7-(ethylamino)-2,6-dimethyl-3H-phenoxazin-3-ylidene)ethanaminium], the “Max Abs” value is recorded as 620 nm, the “Max Em” value amounted to 635 nm, the “Max Ex” value worked out at 620 nm and the Extinction coefficient was 42685 M⁻¹ cm⁻¹. Also, the Quantum yield came to 25.26%.

In the case of `CCN1CCOc2cc3c(cc21)Oc1cc2c(cc1=N3)OCC[N+]=2CC` [LGW05-73, 4,8-diethyl-3,8,9,10-tetrahydro-2H-bis([1,4]oxazino)[2,3-b:3′,2′-i]phenoxazin-4-ium], the “Max Abs” value came out at 657 nm, the “Max Em” value stood at 676 nm, the “Max Ex” value is 660 nm and the Extinction coefficient amounted to 55570 M⁻¹ cm⁻¹. This compound came in with a Quantum yield of 32.95%.

In the case of `CC/N=c1/cc2oc3cc(NC)c(C)cc3nc-2cc1C` [LGW04-81, (Z)—N-(2,8-dimethyl-7-(methylamino)-3H-phenoxazin-3-ylidene)ethanaminium], the “Max Abs” value worked out at 616 nm, the “Max Em” value was found to be 634 nm, the “Max Ex” value amounted to 615 nm and the Extinction coefficient stood at 52291 M⁻¹ cm⁻¹. The Quantum yield came to 39.47%.

In the case of `CC/N=c1/cc2oc3cc(N(C)C)ccc3nc-2cc1C` [LGW04-36, (Z)—N-(7-(dimethylamino)-2-methyl-3H-phenoxazin-3-ylidene)ethanaminium], the “Max Abs” value was determined as 636 nm, the “Max Em” value worked out at 657 nm, the “Max Ex” value stood at 635 nm and the Extinction coefficient amounted to 60819 M⁻¹ cm⁻¹. Moreover, the Quantum yield turned out to be 8.15%.

With `CCN1CCc2cc3c(cc21)Oc1cc2c(cc1=N3)CC[N+]=2CC` [LGW07-59, 1,9-diethyl-2,3,7,8-tetrahydro-1H-dipyrrolo[3,2-b:2′,3′-i]phenoxazin-9-ium], the “Max Abs” value is 649 nm, the “Max Em” value turned out to be 665 nm, the “Max Ex” value was determined as 655 nm and the Extinction coefficient is 51130 M⁻¹ cm⁻¹. For the same compound, the Quantum yield is 32.17%.

Regarding `CC/N=c1/cc2oc3cc(NCC)cc(C)c3nc-2cc1C` [LGW02-59, (Z)—N-(7-(ethylamino)-2,9-dimethyl-3H-phenoxazin-3-ylidene)ethanaminium], the “Max Abs” value was 611 nm, the “Max Em” value was found to be 636 nm, the “Max Ex” value is recorded as 615 nm and the Extinction coefficient is 41229 M⁻¹ cm⁻¹. The compound further showed a Quantum yield of 31.74%.

As for `CC/N=c1/cc2oc3cc(NCC)c(Cl)cc3nc-2cc1C` [LGW05-42, (Z)—N-(8-chloro-7-(ethylamino)-2-methyl-3H-phenoxazin-3-ylidene)ethanaminium], the “Max Abs” value turned out to be 612 nm, the “Max Em” value was 636 nm, the “Max Ex” value was determined as 615 nm and the Extinction coefficient is 41527 M⁻¹ cm⁻¹. Further, the Quantum yield is 37.22%.

Consider `CC/N=c1/cc2oc3cc4c(cc3nc-2cc1C)OCCN4` [LGW03-41, (Z)—N-(9-methyl-3,4-dihydro-[1,4]oxazino[2,3-b]phenoxazin-8(2H)-ylidene)ethanaminium], for which the “Max Abs” value was 607 nm, the “Max Em” value is reported as 641 nm, the “Max Ex” value is listed as 625 nm and the Extinction coefficient turned out to be 19729 M⁻¹ cm⁻¹. This compound displayed a Quantum yield of 25.80%.

Consider `CCCNc1cc2oc3c/c(=N/CC)c(C)cc-3nc2cc1C` [LGW04-32, (Z)—N-(2,8-dimethyl-7-(propylamino)-3H-phenoxazin-3-ylidene)ethanaminium], for which the “Max Abs” value worked out at 620 nm, the “Max Em” value amounted to 638 nm, the “Max Ex” value amounted to 620 nm and the Extinction coefficient stood at 61084 M⁻¹ cm⁻¹. The compound also yielded a Quantum yield of 39.77%.

With `CC/N=c1/cc2oc3cc(N4CCCC4)ccc3nc-2cc1C` [LGW03-06, (Z)—N-(2-methyl-7-(pyrrolidin-1-yl)-3H-phenoxazin-3-ylidene)ethanaminium], the “Max Abs” value turned out to be 640 nm, the “Max Em” value is reported as 661 nm, the “Max Ex” value is reported as 640 nm and the Extinction coefficient amounted to 35942 M⁻¹ cm⁻¹. Moreover, the Quantum yield came out at 11.94%.

Source of the values: patent US11492359B2, “Near-infrared nerve-sparing fluorophores” (OREGON HEALTH & SCIENCE UNIVERSITY, priority 2018, dated 2022).
